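GI50: concentration for 50% inhibition of growth. TGI: concentration producing complete growth inhibition.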
Columns and labels:
Test in all cases: NCI tumour cell line growth inhibition, 384-well format
[1] = system: SF-268 CNS
[2] = system: MDA-MB-435 melanoma
[3] = system: K-562 leukemia
[4] = system: EKVX NSCLC
[5] = system: ACHN renal
[6] = system: SF-539 CNS
[7] = system: HOP-62 NSCLC
[8] = system: HS 578T breast
[9] = system: NCI-H322M lung
[10] = system: 786-0 renal
[11] = system: HCT-15 colon
[12] = system: HT29 colon
[13] = system: HOP-92 NSCLC
[14] = system: SN12C renal
[15] = system: MCF7 breast
[16] = system: SK-MEL-5 melanoma
[17] = system: HCT-116 colon
[18] = system: SNB-19 CNS
[19] = system: MOLT-4 leukemia
[20] = system: SR leukemia
[21] = system: DU-145 prostate
[22] = system: NCI-H522 lung
[23] = system: T-47D breast
[24] = system: M14 melanoma
[25] = system: UO-31 renal
[26] = system: PC-3 prostate
[27] = system: BT-549 breast
[28] = system: RPMI-8226 leukemia
[29] = system: UACC-257 melanoma
[30] = system: LOX IMVI melanoma
[31] = system: TK-10 renal
[32] = system: SW-620 colon
[33] = system: SK-MEL-2 melanoma
[34] = system: CCRF-CEM leukemia
[35] = system: HL-60(TB) leukemia
[36] = system: NCI-H460 NSCLC
[37] = system: HCC-2998 colon
[38] = system: NCI-H23 lung
[39] = system: UACC-62 melanoma
[40] = system: MALME-3M melanoma
[41] = system: RXF 393 renal
[42] = system: OVCAR-3 ovarian
[43] = system: A498 renal
[44] = system: NCI/ADR-RES ovarian
[45] = system: CAKI-1 renal
[46] = system: IGROV1 ovarian
[47] = system: MDA-MB-468 breast
[48] = system: A549 NSCLC
[49] = system: COLO 205 colon
[50] = system: U251 glioblastoma
[51] = system: MDA-MB-231 breast
[52] = system: OVCAR-5 ovarian
[53] = system: OVCAR-4 ovarian
[54] = system: NCI-H226 lung
[55] = system: SK-OV-3 ovarian
[56] = system: SF-295 CNS
[57] = system: SNB-75 CNS
[58] = system: KM12 colon
[59] = system: SK-MEL-28 melanoma

Compound: Cc1ccc(/C=N/NC(=O)c2ccccc2Oc2ccccc2)o1
- GI50 [1]: 18.9 µM
- TGI [1]: 33.3 µM
- GI50 [2]: 18.8 µM
- TGI [2]: 32.9 µM
- GI50 [3]: 3.71 µM
- TGI [3]: 13.5 µM
- GI50 [4]: 18.1 µM
- TGI [4]: 32.5 µM
- GI50 [5]: 3.35 µM
- TGI [5]: 12.2 µM
- GI50 [6]: 18.1 µM
- TGI [6]: 32 µM
- GI50 [7]: 6.21 µM
- TGI [7]: 19 µM
- GI50 [8]: 16.6 µM
- TGI [8]: 30.3 µM
- GI50 [9]: 19.1 µM
- TGI [9]: 34.5 µM
- GI50 [10]: 8.44 µM
- TGI [10]: 20.8 µM
- GI50 [11]: 17.3 µM
- TGI [11]: 31.6 µM
- GI50 [12]: 17.9 µM
- TGI [12]: 32 µM
- GI50 [13]: 4.72 µM
- TGI [13]: 16.4 µM
- GI50 [14]: 4.87 µM
- TGI [14]: 17 µM
- GI50 [15]: 4.85 µM
- TGI [15]: 17.1 µM
- GI50 [16]: 17.1 µM
- TGI [16]: 30.9 µM
- GI50 [17]: 17.7 µM
- TGI [17]: 31.6 µM
- GI50 [18]: 12.1 µM
- TGI [18]: 25 µM
- GI50 [19]: 1.75 µM
- TGI [19]: 3.2 µM
- GI50 [20]: 1.73 µM
- TGI [20]: 3.24 µM
- GI50 [21]: 6.77 µM
- TGI [21]: 19.9 µM
- GI50 [22]: 16.2 µM
- TGI [22]: 29.7 µM
- GI50 [23]: 16.2 µM
- TGI [23]: 29.8 µM
- GI50 [24]: 5.39 µM
- TGI [24]: 18 µM
- GI50 [25]: 3.78 µM
- TGI [25]: 13.1 µM
- GI50 [26]: 17.6 µM
- TGI [26]: 32 µM
- GI50 [27]: 19.5 µM
- TGI [27]: 33.7 µM
- GI50 [28]: 18.6 µM
- TGI [28]: 32.7 µM
- GI50 [29]: 17.3 µM
- TGI [29]: 31.2 µM
- GI50 [30]: 19.5 µM
- TGI [30]: 33.7 µM
- GI50 [31]: 4.22 µM
- TGI [31]: 16.7 µM
- GI50 [32]: 19.2 µM
- TGI [32]: 33.4 µM
- GI50 [33]: 3.99 µM
- TGI [33]: 7.04 µM
- GI50 [34]: 2 µM
- TGI [34]: 4.13 µM
- GI50 [35]: 19.4 µM
- TGI [35]: 33.6 µM
- GI50 [36]: 16.6 µM
- TGI [36]: 30.5 µM
- GI50 [37]: 17.8 µM
- TGI [37]: 31.7 µM
- GI50 [38]: 4.32 µM
- TGI [38]: 16.1 µM
- GI50 [39]: 4.66 µM
- TGI [39]: 16.5 µM
- GI50 [40]: 18.6 µM
- TGI [40]: 32.7 µM
- GI50 [41]: 16.9 µM
- TGI [41]: 30.6 µM
- GI50 [42]: 16.3 µM
- TGI [42]: 30.4 µM
- GI50 [43]: 17.3 µM
- TGI [43]: 31.2 µM
- GI50 [44]: 17.5 µM
- TGI [44]: 31.7 µM
- GI50 [45]: 17.6 µM
- TGI [45]: 31.6 µM
- GI50 [46]: 2.49 µM
- TGI [46]: 10.7 µM
- GI50 [47]: 1.88 µM
- TGI [47]: 3.84 µM
- GI50 [48]: 17.9 µM
- TGI [48]: 31.9 µM
- GI50 [49]: 5.62 µM
- TGI [49]: 17.3 µM
- GI50 [50]: 18 µM
- TGI [50]: 32 µM
- GI50 [51]: 18.3 µM
- TGI [51]: 34 µM
- GI50 [52]: 6.64 µM
- TGI [52]: 20 µM
- GI50 [53]: 10.7 µM
- TGI [53]: 24.4 µM
- GI50 [54]: 6.68 µM
- TGI [54]: 19.2 µM
- GI50 [55]: 16.8 µM
- TGI [55]: 31.2 µM
- GI50 [56]: 4.52 µM
- TGI [56]: 16.4 µM
- GI50 [57]: 17.1 µM
- TGI [57]: 31.1 µM
- GI50 [58]: 0.829 µM
- TGI [58]: 19.5 µM
- GI50 [59]: 18.6 µM
- TGI [59]: 32.6 µM

Reference: PubChem BioAssay (NCI)
